From US20220289698A1, “INHIBITORS OF HUMAN ATGL” (Karl-Franzens-Universität Graz, priority 2019, published 2022) come the findings set out here.

Assay [1] has as its target T1, human ATGL (Homo sapiens, UniProt Q96AD5).
T1 construct: made in house; host or cells: Expi cells (lysate, not purified)
T1 sequence (Q96AD5 1-504): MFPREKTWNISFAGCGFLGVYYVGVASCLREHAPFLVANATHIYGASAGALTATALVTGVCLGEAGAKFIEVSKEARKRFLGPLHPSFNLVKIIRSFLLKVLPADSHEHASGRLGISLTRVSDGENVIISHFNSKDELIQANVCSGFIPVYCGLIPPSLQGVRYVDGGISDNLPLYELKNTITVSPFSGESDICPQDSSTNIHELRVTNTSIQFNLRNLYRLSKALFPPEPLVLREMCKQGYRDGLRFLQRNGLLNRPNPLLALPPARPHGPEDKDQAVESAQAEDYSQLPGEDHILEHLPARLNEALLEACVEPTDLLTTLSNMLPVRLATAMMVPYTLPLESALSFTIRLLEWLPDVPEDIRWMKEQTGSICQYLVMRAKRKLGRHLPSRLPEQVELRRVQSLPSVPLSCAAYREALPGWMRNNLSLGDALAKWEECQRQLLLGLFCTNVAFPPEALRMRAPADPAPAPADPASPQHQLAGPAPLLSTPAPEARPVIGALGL
Put plainly: TG hydrolase activity, Expi cell lysates expressing human ATGL + CGI-58, radiolabelled triolein. The format is biochemical. How it is done: (§1) Triglyceride (TG) hydrolase activity was measured as previously described (Schweiger M et al., Methods in Enzymology, 2014, 538:171-93). In brief, TG hydrolase activity was determined by adding recombinant purified CGI-58 to Expi cell lysates expressing human ATGL. For determination of cross-species reactivity Expi lysates expressing ATGL from different model organisms (e.g. mouse, rat, rhesus monkey, goat, etc.) were used. Samples were incubated with DMSO (carrier) or increasing concentrations of ATGL inhibitors dissolved in DMSO. TG substrate was prepared by emulsifying 330 μM radiolabelled triolein (40,000 c.p.m./nmol) and 45 μM phosphatidylcholine/phosphatidylinositol (3:1) in 100 mM potassium phosphate buffer (pH 7.0) by sonication and adjusting to 5% essentially FA-free BSA. TG substrate was added to the reaction mixture and incubated for 1 h at 37° C. in the water bath. The reaction was terminated by adding methanol/chloroform/heptane (10:9:7) and 0.1 M potassium carbonate with 0.1 M boric acid (pH 10.5). After centrifugation at 800 g for 15 min the radioactivity in the upper phase was determined by liquid scintillation counting and the rate of FA hydrolysis was calculated. IC50 values were determined as inhibitor concentration capable of inhibiting TG hydrolase activity by 50% as compared to DMSO control. Samples were measured as duplicates. The determination of IC50 values for human ATGL is illustrated in FIG. 1.

The target in assay [2] is T2, murine ATGL (Mus musculus, UniProt Q8BJ56).
T2 construct: made in house; host or cells: Expi cells (lysate)
T2 sequence (Q8BJ56 1-486): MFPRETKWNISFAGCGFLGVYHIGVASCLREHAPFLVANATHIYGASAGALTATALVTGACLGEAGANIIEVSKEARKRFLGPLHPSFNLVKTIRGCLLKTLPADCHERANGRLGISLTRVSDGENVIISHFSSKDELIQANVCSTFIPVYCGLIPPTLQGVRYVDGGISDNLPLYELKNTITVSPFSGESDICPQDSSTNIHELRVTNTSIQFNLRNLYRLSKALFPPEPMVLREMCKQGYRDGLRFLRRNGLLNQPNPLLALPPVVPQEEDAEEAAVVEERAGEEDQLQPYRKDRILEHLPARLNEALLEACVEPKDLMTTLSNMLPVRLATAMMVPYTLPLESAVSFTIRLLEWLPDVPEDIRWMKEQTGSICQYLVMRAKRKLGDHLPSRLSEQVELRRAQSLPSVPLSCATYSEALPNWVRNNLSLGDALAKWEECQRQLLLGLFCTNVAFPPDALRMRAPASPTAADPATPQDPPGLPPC
Put plainly: TG hydrolase activity, Expi lysates expressing mouse ATGL + CGI-58, radiolabelled triolein. The class given is biochemical. How it is done: as §1
Lysates from Expi cells overexpressing ATGL from mouse (Mus musculus) were incubated with recombinant purified ATGL co-activator CGI-58 and ATGL inhibitors at 50 μM. Subsequently, substrate containing radiolabeled triolein was added and liberated FA were extracted and quantified by liquid scintillation. Inhibitors were dissolved in DMSO which was used as control. Samples were measured in triplicates.

[3] abbreviates: values of text and figure legend, read-out: IC50 on human ATGL (hATGL).
Setting [4] is: Example 237, read-out: Inhibition of human ATGL − IC50.
[5] abbreviates: 50 μM compound, Example 237, read-out: Inhibition of murine ATGL at 50 μM − mean [%].
The mark [6] stands for this setting: Example 238, read-out: Inhibition of human ATGL IC50.
Where [7] appears, read: 50 μM, Example 238, read-out: % Inhibition of murine ATGL at 50 μM.

Like-named read-outs stand apart in the source and are kept apart here.

On to `CCOC(=O)c1cn(-c2ccc(OCC)cc2)cn1` [AM-30, reference compound], for which the IC50 in assay [1] (setting [3]) was not below 200 µM.
As for `CCOC(=O)c1cnc(-c2ccc(OCC)cc2)s1` [AM-52, reference compound], the IC50 in assay [1] (setting [3]) was more than 200 µM.
For `CCOC(=O)c1cc(-c2ccc(OCC)cc2)no1` [AMU-4-245, reference compound], the IC50 in assay [1] (setting [3]) was not below 200 µM.
For `CCOC(=O)c1cc(-c2ccc(OCC)cc2)ns1` [AMU-27, reference compound], the IC50 in assay [1] (setting [3]) is not below 200 µM.
`COCOc1ccc(-c2cccc(C(=O)OC(C)C)n2)cc1` [Example 13]: the IC50 in assay [1] (setting [4]) is 8 µM.
With `CC(C)OC(=O)c1cccc(-c2ccccc2)n1` [Example 24], in assay [2] (setting [5]), the inhibition at 50 µM turned out to be 38%. The IC50 in assay [1] (setting [4]) was determined as 25 µM.
On to `CC(C)OC(=O)c1cccc(-c2ccc(F)cc2)n1` [Example 25], for which the inhibition at 50 µM in assay [2] (setting [5]) worked out at 10.9%. Moreover, in assay [1] (setting [4]), the IC50 came to 8 µM.
Taken in the same sequence, the figures for `CC(C)OC(=O)c1cccc(-c2ccc(C(=O)N(C)C)cc2)n1` [Example 42] were 6.2% and 10 µM.
For `CCOC(=O)c1cccc(-c2ccc(C(C)OC)cc2)n1` (stereo not drawn) [Example 45], the IC50 in assay [1] (setting [4]) came out at 10 µM.
As to `C#CC(C)OC(=O)c1cc(OC)cc(-c2ccc(CCC)cc2)n1` (stereo not drawn) [Example 54], in assay [2] (setting [5]), the inhibition at 50 µM was 0%. In assay [1] (setting [4]), the IC50 came to 20 µM.
Consider `CCC(C)c1ccc(-c2cc(OC)cc(C(=O)OC(C)C)n2)cc1` (stereo not drawn) [Example 56], for which, in assay [2] (setting [5]), the inhibition at 50 µM is 0%. Further, the IC50 in assay [1] (setting [4]) came to 7 µM.
For the compound `CCCCc1ccc(-c2cc(OC)cc(C(=O)OC(C)C)n2)cc1` [Example 57], the IC50 in assay [1] (setting [4]) turned out to be 2 µM.
On to `COc1cc(C(=O)OC(C)C)nc(-c2ccc(C(C)OC)cc2)c1` (stereo not drawn) [Example 62], for which, in assay [1] (setting [4]), the IC50 was 2 µM.
Turning to `CON(C)C(=O)c1ccc(-c2cccc(C(=O)OC(C)C)n2)cc1` [Example 77], the inhibition at 50 µM in assay [2] (setting [5]) was determined as 0%. Moreover, the IC50 in assay [1] (setting [4]) was 5 µM.
The matching figures for `CC(C)OC(=O)c1cccc(CCc2ccccc2)n1` [Example 80]: 3.4% and 50 µM.
Consider `CC(C)OC(=O)c1cccc(OCCc2ccccc2)n1` [Example 91], for which the IC50 in assay [1] (setting [4]) was found to be 50 µM.
Regarding `CCOC(=O)c1cccc(-c2ccc(COC(C)=O)cc2)n1` [Example 93], the IC50 in assay [1] (setting [4]) worked out at 20 µM.
Take `CC(C)OC(=O)c1cccc(-c2ccc(OC(C)C)cc2)n1` [Example 95]: the inhibition at 50 µM in assay [2] (setting [5]) stood at 13.1%. For the same compound, the IC50 in assay [1] (setting [4]) was determined as 3 µM.
`CC(C)OC(=O)c1ccc(-c2cccc(C(=O)OC(C)C)n2)cc1` [Example 97]: the IC50 in assay [1] (setting [4]) amounted to 20 µM.
On to `CCOC(=O)c1csc(-c2ccc(SCC)cc2)n1` [Example 98, Ethyl 2-(4-(ethylthio)phenyl)thiazole-4-carboxylate], for which the inhibition at 50 µM in assay [2] (setting [5]) is 0%. In addition, the IC50 in assay [1] (setting [4]) amounted to 12 µM.
Consider `C#CCOC(=O)c1csc(-c2ccc(OCC)cc2)n1` [Example 149, Prop-2-yn-1-yl 2-(4-ethoxyphenyl)thiazole-4-carboxylate], for which the IC50 in assay [1] (setting [4]) was 3 µM.
On to `CCC/C=C/COC(=O)c1csc(-c2ccc(OCC)cc2)n1` [Example 155, (E)-Hex-2-en-1-yl 2-(4-ethoxyphenyl)thiazole-4-carboxylate], for which the IC50 in assay [1] (setting [4]) is 15 µM.
As to `CCCCCCOC(=O)c1csc(-c2ccc(OCC)cc2)n1` [Example 156, Hexyl 2-(4-ethoxyphenyl)thiazole-4-carboxylate], the IC50 in assay [1] (setting [4]) was 15 µM.
The same measure, in the same setting: the value for `CCOc1ccc(-c2nc(C(=O)OCc3ccccc3)cs2)cc1` [Example 158, Benzyl 2-(4-ethoxyphenyl)thiazole-4-carboxylate] was 15 µM.
On the same count and under the same terms, the value for `CCOc1ccc(-c2nc(C(=O)OCc3ccncc3)cs2)cc1` [Example 159, Pyridin-4-ylmethyl 2-(4-ethoxyphenyl)thiazole-4-carboxylate] was 20 µM; that for `CCOc1ccc(-c2nc(C(=O)OCc3cccnc3)cs2)cc1` [Example 160, Pyridin-3-ylmethyl 2-(4-ethoxyphenyl)thiazole-4-carboxylate] was 15 µM.
On the same count and under the same terms, the value for `CCOC(=O)c1nc(-c2ccc(OCC)cc2)sc1Br` [Example 164, Ethyl 5-bromo-2-(4-ethoxyphenyl)thiazole-4-carboxylate] was 25 µM; that for `CCOC(=O)c1nc(-c2ccc(OCC)cc2)sc1I` [Example 165, Ethyl 2-(4-ethoxyphenyl)-5-iodothiazole-4-carboxylate] was 5 µM; that for `CCOc1ccc(-c2nc(C(=O)OC(C)(C)C)c(N3CCCCC3)s2)cc1` [Example 167, tert-Butyl 2-(4-ethoxyphenyl)-5-(piperidin-1-yl)thiazole-4-carboxylate] was 10 µM.
For `CCOc1ccc(-c2nc(C(=O)OC(C)(C)C)c(C(C)=O)s2)cc1` [Example 171, tert-Butyl 5-acetyl-2-(4-ethoxyphenyl)thiazole-4-carboxylate], the IC50 in assay [1] (setting [4]) came to 5 µM.
Still for that read-out and setting: the value for `CCOC(=O)c1nc(-c2ccc(OCC)cc2)sc1C(C)=O` [Example 172, Ethyl 5-acetyl-2-(4-ethoxyphenyl)thiazole-4-carboxylate] was 20 µM; that for `CCOc1ccc(-c2nc(C(=O)OC(C)(C)C)c(C(=O)C(C)C)s2)cc1` [Example 173, tert-Butyl 2-(4-ethoxyphenyl)-5-isobutyrylthiazole-4-carboxylate] was 12 µM; that for `CCOc1ccc(-c2nc(C(=O)OC(C)(C)C)c(C(=O)C3CC3)s2)cc1` [Example 174, tert-Butyl 5-(cyclopropanecarbonyl)-2-(4-ethoxyphenyl)thiazole-4-carboxylate] was 25 µM.
Turning to `CCOc1ccc(-c2nc(C(=O)OCc3cocn3)cs2)cc1` [Example 218, Oxazol-4-ylmethyl 2-(4-ethoxyphenyl)thiazole-4-carboxylate], in assay [1] (setting [6]), the IC50 came to 20 µM.
As to `CCOc1ccc(-c2nc(C(=O)OCc3cnco3)cs2)cc1` [Example 220], in assay [1] (setting [6]), the IC50 stood at 30 µM.
On to `CCOc1ccc(-c2nc(C(=O)OC(C)c3nccs3)cs2)cc1` (stereo not drawn) [Example 225, 1-(Thiazol-2-yl)ethyl 2-(4-ethoxyphenyl)thiazole-4-carboxylate], for which the inhibition at 50 µM in assay [2] (setting [7]) was 68%.
With `CCOC(=O)c1nc(-c2ccc(OCC)cc2)sc1C(C)C` [Example 227, Ethyl 2-(4-ethoxyphenyl)-5-isopropylthiazole-4-carboxylate], the inhibition at 50 µM in assay [2] (setting [7]) is 44%.
Take `COc1ccc(-c2nc(C(=O)OCc3ccsc3)cs2)cc1` [Example 231, Thiophen-3-ylmethyl 2-(4-methoxyphenyl)thiazole-4-carboxylate]: in assay [1] (setting [6]), the IC50 was 30 µM.
On to `CCCOc1ccc(-c2nc(C(=O)OCc3ccsc3)cs2)cc1` [Example 232, Thiophen-3-ylmethyl 2-(4-propoxyphenyl)thiazole-4-carboxylate], for which the IC50 in assay [1] (setting [6]) is 12 µM.
Consider `CC(C)Oc1ccc(-c2nc(C(=O)OCc3ccsc3)cs2)cc1` [Example 233, Thiophen-3-ylmethyl 2-(4-Isopropoxyphenyl)thiazole-4-carboxylate], for which, in assay [1] (setting [6]), the IC50 is 10 µM.
In the case of `CCOc1ccc(-c2ccc(C)c(C(=O)OC(C)C)n2)cc1` [NG-469, reference compound], the IC50 in assay [1] (setting [3]) was more than 200 µM.
The same measure, in the same setting: for `CN(C)C(=O)Nc1cccc(-c2ccc(N(C)C)cc2)c1` [atglistatin, reference compound] the value was more than 200 µM.

The IC50 is the concentration that inhibits the measured activity by half. By inhibition is commonly meant the drop in the measured response relative to a control, in per cent.
